According to patent US4299830A, “1,5-Methano-1,4-benzodiazocines, intermediates therefor, and method of use and compositions thereof” (Sterling Drug Inc., priority 1980, dated 1981):

Tests used:
[1] = Anti-acetylcholine Writhing Test; assay type: in vivo; settings: mice; for ED50: Mus musculus, read-out: ED50 (95% Confidence Limits); for ED50 / ED50 (95% Confidence Limits): expressed as free base
Excerpt: This response has been called writhing.

[2] = Tail-flick Antagonist Test against phenazocine; settings: for ED50: Rattus norvegicus, read-out: AD50 (95% Confidence Limits); for antagonist response at 1 mg./kg.: 1 mg./kg. subcutaneous; for antagonist response at 10 mg./kg.: 10 mg./kg. subcutaneous
Anti-bradykinin Test = assay type: in vivo; settings: rats, expressed as free base; for ED50: Rattus norvegicus, read-out: ED50 (95% Confidence Limits)
Tail-flick Agonist Test = assay type: in vivo; settings: doses up to 120 mg./kg. subcutaneously, rats
[3] = Tail-flick Antagonist Test against morphine; settings: Rattus norvegicus, read-out: AD50 (95% Confidence Limits)
[4] = Tail-flick Antagonist Test against meperidine; settings: Rattus norvegicus, read-out: AD50 (95% Confidence Limits)
[5] = Comparison in three of the foregoing tests with the compound lacking 9-amino; settings: relative to Gubitz compound
[6] = Anti-phenylquinone Writhing Test; assay type: in vivo; settings: Mus musculus, mice, expressed as free base, read-out: ED50 (95% Confidence Limits)
[7] = EDTA Antinociceptive Test; assay type: in vivo; settings: Cavia porcellus, sc, 0.5 h; subcutaneous, guinea pig, 30 minutes; read-out: subcutaneously effective dose (reduces the response score to 6 or less)
Procedure: This is also a confirmatory evaluation of analgesic activity. The test animal is the guinea pig. A threshold intradermal dose of ethylenediaminetetraacetic acid (EDTA) which can reproducibly elicit a cumulative response score of 12-18 discrete episodes of jumping, rearing, running, vocalization and biting or scratching at the site of injection within 40 seconds after challenge is determined for each animal. Thirty minutes after the administration of saline or test compound to 6-7 animals per dose, each animal is again challenged with its own threshold dose of EDTA. An effective drug dose is considered to be one which reduces the response score to 6 or less.

C=CCN1CCN2CC1Cc1ccc(N)cc12 (stereo not shown) [Example 2E, 4-allyl-9-amino-3,4,5,6-tetrahydro-2H-1,5-methano-1,4-benzodiazocine diethanesulfonate hemihydrate]
ED50 ([1]; sc, subcutaneous): 30 mg/kg
ED50 ([2]; sc): 1.6 mg/kg

c1ccc2c(c1)CC1CN2CCN1CC1CC1 (stereo not shown) [Compound of Formula A*, 4-cyclopropylmethyl-3,4,5,6-tetrahydro-2H-1,5-methano-1,4-benzodiazocine, reference compound]
ED50 (Anti-bradykinin Test; sc, subcutaneous): 21 mg/kg
ED50 ([1]; po): 32 mg/kg
ED50 ([1]; sc, subcutaneous): 12 mg/kg
ED50 ([2]; sc): 34 mg/kg

Nc1ccc2c(c1)N1CCN(CC3CC3)C(C2)C1 (stereo not shown) [Example 1K, dextro-4-cyclpropylmethyl-9-amino-3,4,5,6-tetrahydro-2H-1,5-methano-1,4-benzodiazocine]
ED50 (95% Confidence Limits) ([1]; subcutaneous): 1.0 (0.62-2.0) Mg./Kg.
ED50 ([2]; sc): 0.31 mg/kg

Nc1ccc2c(c1)N1CCN(CC3CC3)C(C2)C1 (stereo not shown) [Example 1J, levo-4-cyclopropylmethyl-9-3,4,5,6-tetrahydro-2H-1,5-methano-1,4-benzodiazocine]
response at 75 mg./kg. (highest dose tested) ([1]; 75 mg./kg. subcutaneous): 67%
ED50 (95% Confidence Limits) ([1]; subcutaneous): 40 Mg./Kg.
antagonist response at 1 mg./kg. ([2]; against phenazocine): 10%
antagonist response at 10 mg./kg. ([2]; against phenazocine): 6%
antagonist response at 80 mg./kg. ([2]; 80 mg./kg. subcutaneous, against phenazocine): 25%

CCCCNc1ccc2c(c1)N1CCN(CC3CC3)C(C2)C1 (stereo not shown) [Example 4B, 4-cyclopropylmethyl-9-butylamino-3,4,5,6-tetrahydro-2H-1,5-methano-1,4-benzodiazocine]
ED50 (Anti-bradykinin Test; sc, subcutaneous): 2.9 mg/kg
ED50 ([1]; sc, subcutaneous): 1.6 mg/kg
tail-flick agonist activity (Tail-flick Agonist Test): at most inactive or questionably active
antagonist response at 1 mg./kg. ([2]; against phenazocine): 6%
antagonist response at 10 mg./kg. ([2]; against phenazocine): 0%
antagonist response at 20 mg./kg. ([2]; 20 mg./kg. subcutaneous, against phenazocine): 34%
toxic effects at 20 mg./kg. ([2]; 20 mg./kg. subcutaneous, rats): toxic effects

CCS(=O)(=O)O.CCS(=O)(=O)O.Nc1ccc2c(c1)N1CCN(CC3CC3)C(C2)C1 (stereo not shown) [Example 1E, 4-cyclopropylmethyl-9-amino-3,4,5,6-tetrahydro-2H-1,5-methano-1,4-benzodiazocine diethanesulfonate]
ED50 ([3]; po): 13 mg/kg
ED50 (Anti-bradykinin Test; oral): 4.2 mg/kg
ED50 ([1]; sc, subcutaneous): 3.7 mg/kg
ED50 ([4]; po): 4.8 mg/kg
tail-flick agonist activity (Tail-flick Agonist Test): at most inactive or questionably active
ED50 ([2]; po): 3.5 mg/kg

Nc1ccc2c(c1)N1CCN(CC3CC3)C(C2)C1 (racemic) [Example 1D, 4-cyclopropylmethyl-9-amino-3,4,5,6-tetrahydro-2H-1,5-methano-1,4-benzodiazocine]
times more potent than the compound of Formula A (lacking 9-amino) [5]: four to ten
ED50 ([3]; sc): 8.6 mg/kg
ED50 (Anti-bradykinin Test; sc, subcutaneous): 2.6 mg/kg
ED50 (Anti-bradykinin Test; oral): 5.4 mg/kg
ED50 (95% Confidence Limits) (Anti-bradykinin Test; subcutaneous): 2.6 (1.5-4.1) Mg./Kg.
ED50 ([6]; sc, subcutaneous): 1.8 mg/kg
ED50 ([6]; oral): 5.7 mg/kg
ED50 ([1]; po): 5.9 mg/kg
ED50 ([1]; sc, subcutaneous): 3.2 mg/kg
ED50 (95% Confidence Limits) ([1]; oral): 5.9 (3.9-8.7) Mg./Kg.
ED50 (95% Confidence Limits) ([1]; subcutaneous): 3.2 (2.0-4.8) Mg./Kg.
ED50 ([4]; sc): 3.3 mg/kg
tail-flick agonist activity (Tail-flick Agonist Test): at most inactive or questionably active
minimal effective dose [7]: 1.25 mg/kg
ED50 ([2]; sc): 1.6 mg/kg
AD50 (95% Confidence Limits) ([2]; subcutaneous, against phenazocine, expressed as free base): 1.6 (1.0-2.6) mg./kg.

CCNc1ccc2c(c1)N1CCN(CC3CC3)C(C2)C1.Cl.Cl (stereo not shown) [Example 3B, 4-cyclopropylmethyl-9-ethylamino-3,4,5,6-tetrahydro-2H-1,5-methano-1,4-benzodiazocine dihydrochloride]
ED50 (Anti-bradykinin Test; sc, subcutaneous): 3.4 mg/kg
ED50 ([1]; sc, subcutaneous): 3.8 mg/kg
tail-flick agonist activity (Tail-flick Agonist Test): at most inactive or questionably active
ED50 ([2]; sc): 4.4 mg/kg
